According to ChEMBL document CHEMBL1201862, “PubChem BioAssay data set” (2004):
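Step 1: Grow cells in 96-well plates. Step 2: Expose to compound for 48 hours at 5 concentrations. Step 3: Interpolate endpoints linearly; if unreached, use highest concentration. Here, GI50 denotes the concentration required for 50% inhibition of growth.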 Active and inactive are the calls of the source. Cut-off read from the data, not from the text of the source: active = GI50 up to about 1.1 µM and inactive = higher.

Tests used:
Assay in all cases: inhibition of tumour cell growth, NCI panel, 48 h
M19-MEL = system: M19-MEL
HOP-62 = system: HOP-62
SF-295 = system: SF-295
TK-10 = system: TK-10
HCC 2998 = system: HCC 2998
NCI-H23 = system: NCI-H23
U-251 = system: U-251
CCRF-CEM = system: CCRF-CEM
SK-MEL-5 = system: SK-MEL-5
IGROV-1 = system: IGROV-1
OVCAR-8 = system: OVCAR-8
SNB-19 = system: SNB-19
786-0 = system: 786-0
SNB-75 = system: SNB-75
UACC-257 = system: UACC-257
LOX IMVI = system: LOX IMVI
EKVX = system: EKVX
MDA-N = system: MDA-N
SR = system: SR
MDA-MB-435 = system: MDA-MB-435

Measured: GI50

CCC1(CN(C)C)CC/C(=C\c2ccc(OC)cc2)C1=O (centres undefined)
inactive: M19-MEL > 100 µM | HOP-62 > 100 µM | SF-295 > 100 µM | TK-10 > 100 µM | HCC 2998 > 100 µM | NCI-H23 > 100 µM | U-251 > 100 µM | CCRF-CEM 30 µM | SK-MEL-5 58.6 µM | IGROV-1 > 100 µM | OVCAR-8 > 100 µM | SNB-19 > 100 µM | 786-0 > 100 µM | SNB-75 > 100 µM | UACC-257 89.3 µM | LOX IMVI > 100 µM | EKVX > 100 µM

CN(C)C=C1C(Cl)=C(C=O)CC(C=O)=C1Cl
inactive: M19-MEL 11.4 µM | HOP-62 23.7 µM | SF-295 18.3 µM | TK-10 16.7 µM | HCC 2998 15.2 µM | NCI-H23 14.6 µM | U-251 11.4 µM | CCRF-CEM 2.5 µM | SK-MEL-5 10.4 µM | IGROV-1 16.1 µM | OVCAR-8 3.13 µM | SNB-19 14.3 µM | 786-0 11.8 µM | SNB-75 15.4 µM | UACC-257 14.9 µM | LOX IMVI 2.19 µM | EKVX 22.4 µM

C[C@@H](C1CCC2C3C(=CC(=O)[C@@]21C)[C@H](C)[C@]1(CCC(=O)O1)C1OC31)[C@H]1C[C@]2(C)O[C@@](C)(O1)OC2(C)C (some centres undefined)
inactive: M19-MEL > 100 µM | SF-295 > 100 µM | TK-10 > 100 µM | NCI-H23 > 100 µM | U-251 > 100 µM | CCRF-CEM > 100 µM | SK-MEL-5 > 100 µM | IGROV-1 > 100 µM | OVCAR-8 > 100 µM | SNB-19 > 100 µM | 786-0 > 100 µM | LOX IMVI > 100 µM | EKVX > 100 µM

O=c1[nH]cnc2c(C3OC(CO)C(O)C3O)c[nH]c12 (centres undefined)
inactive: HOP-62 > 100 µM | SF-295 > 100 µM | TK-10 > 100 µM | HCC 2998 > 100 µM | NCI-H23 > 100 µM | U-251 > 100 µM | MDA-N > 100 µM | CCRF-CEM > 100 µM | SK-MEL-5 > 100 µM | IGROV-1 > 100 µM | OVCAR-8 > 100 µM | SNB-19 > 100 µM | SR > 100 µM | 786-0 > 100 µM | MDA-MB-435 > 100 µM | SNB-75 > 100 µM | UACC-257 > 100 µM | LOX IMVI > 100 µM | EKVX > 100 µM

C=C[C@@]1(O)CCCC[C@@H]1CC(Sc1ccccc1)Sc1ccccc1
inactive: HOP-62 16 µM | SF-295 14.7 µM | TK-10 15.7 µM | HCC 2998 13 µM | NCI-H23 17.2 µM | U-251 16.7 µM | MDA-N 20.1 µM | CCRF-CEM 30.6 µM | SK-MEL-5 17.1 µM | IGROV-1 14.9 µM | OVCAR-8 17.9 µM | SNB-19 18 µM | SR 37.1 µM | 786-0 22.2 µM | MDA-MB-435 16.3 µM | SNB-75 13.7 µM | UACC-257 17.4 µM | LOX IMVI 19.6 µM | EKVX 15.3 µM

CC1(C)C/C(=N/O)c2c(nc3ccc4ccccc4c3c2-c2ccc(Cl)cc2)C1
inactive: HOP-62 23.2 µM | SF-295 10.9 µM | TK-10 16.1 µM | HCC 2998 21.6 µM | NCI-H23 22 µM | U-251 11.5 µM | MDA-N 25.1 µM | CCRF-CEM 10.9 µM | SK-MEL-5 37.2 µM | IGROV-1 14.9 µM | OVCAR-8 12.5 µM | SNB-19 35 µM | SR 4.75 µM | 786-0 3.79 µM | MDA-MB-435 60.1 µM | SNB-75 16.2 µM | UACC-257 25.4 µM | LOX IMVI 13.7 µM | EKVX 15.7 µM

COc1c2c(cc3c1C1(O)Cc4ccc5c(c4C[N+]1(C)CC3)OCO5)OCO2 (centres undefined)
inactive: HOP-62 > 100 µM | SF-295 > 100 µM | TK-10 > 100 µM | HCC 2998 33 µM | NCI-H23 > 100 µM | U-251 > 100 µM | MDA-N > 100 µM | CCRF-CEM 82.8 µM | SK-MEL-5 > 100 µM | IGROV-1 > 100 µM | OVCAR-8 > 100 µM | SNB-19 > 100 µM | SR 77.8 µM | 786-0 > 100 µM | MDA-MB-435 > 100 µM | SNB-75 > 100 µM | UACC-257 > 100 µM | LOX IMVI 62.1 µM | EKVX 87.3 µM

NC(=O)C(=Cc1ccc(C(O)P(=O)(O)O)cc1)C(N)=O (centres undefined)
inactive: M19-MEL > 100 µM | HOP-62 > 100 µM | SF-295 > 100 µM | TK-10 > 100 µM | HCC 2998 > 100 µM | NCI-H23 > 100 µM | U-251 > 100 µM | SK-MEL-5 > 100 µM | IGROV-1 > 100 µM | OVCAR-8 > 100 µM | SNB-19 > 100 µM | 786-0 > 100 µM | SNB-75 > 100 µM | UACC-257 > 100 µM | LOX IMVI > 100 µM | EKVX > 100 µM
